US10416163B2, “Method and treatment of recurring endometrial cancer with an inhibitor of USP14” (Regents of the University of Minnesota, priority 2016, dated 2019)
pIC50: −log10 of the molar value. Like-named read-outs stand apart in the source and are kept apart here.

Columns and labels:
[1] = tested on: cisplatin resistant ovarian cancer cell lines HEY and OVCA-3 and primary cells from patients with recurrent and resistant disease; assay: Cell viability (XTT) of chemoresistant ovarian cancer cells exposed to USP14 inhibitor; type: cell-based, human; conditions: increasing concentrations, 48 hours
Description: Inhibition of USP14 selectively kills ovarian cancer cell lines resistant to cisplatin and primary ovarian cancer cells derived from patients with recurrent and chemoresistant disease. Sensitivity to inhibition of USP14 was evaluated in exponentially growing human fibroblasts, in the exponentially growing cisplatin resistant ovarian cancer cell lines HEY and OVCA-3 and in two exponentially growing primary cells derived from patient with recurrent and resistant (to carboplatin) disease. Primary cells were obtained according to a method recently described in two manuscripts.

ovarian cancer cells = assay: Active caspase-3 levels in ovarian cancer cells; type: cell-based; conditions: increasing concentrations
[2] = tested on: HEC155 endometrial cancer cell line; assay: Cell viability assay (WST-1), HEC155; type: cell-based; conditions: for pIC50: HEC155, 48 hours exposure
Description: (§1) Cell viability was determined by 2,3-bis[2-methoxy-4-nitro-5-sulfophenyl]-2H-tetrazolium-5-carboxanilide inner salt assay as previously described. Briefly, cells were seeded at the concentration of 1.000 per well in 100 μL medium in 96-well plate and treated with the indicated concentrations of drugs. At the indicated time points, cells were incubated according to the manufacturer's protocol with the WST-1 labeling mixture for 2 hours. Formazan dye was quantified using a spectrophotometric plate reader to measure the absorbance at 450 nm (ELISA reader 190; Molecular Devices).
(§2) The next step was to investigate whether USP14 is a molecular target for endometrial cancer cells. To this end, the expression levels of USP14 in a panel of endometrial cancer cell lines including HEC155, EFE184 and ECC1 was first measured. These cells were chosen as they represent the most aggressive and most likely to recur endometrial cancer types. As shown in FIG. 4A (left panel), all cell lines tested expressed USP14 with HEC155 and ECC1 having the highest levels. Next. ECC1 and HEC155 endometrial cancer cells were exposed to increasing concentrations of the small-molecule inhibitor […] and the residual cell viability was measured after a period of 48 hours.
(§3) In the clinical setting, recurrent endometrial cancer is usually resistant to chemotherapy. Previous studies have reported that among endometrial cancer cell lines, HEC155 and ECC1 have the highest levels of LCAM, a marker for endometrial cancer recurrence. […] Thus, the IC50 levels for carboplatin treatment of HEC155 and ECC1 cells was measured.

[3] = tested on: ECC1 endometrial cancer cell line; assay: Cell viability assay (WST-1), ECC1; type: cell-based; conditions: for pIC50: ECC1, 48 hours exposure
Description: as §1, §2, §3

[4] = tested on: ubiquitin-dependent protein degradation in ECC1 cells; assay: Western blot for accumulation of poly-ubiquitinated proteins, ECC1; type: cell-based
Description: (§4) Total cellular protein (10-20 μg) from each sample was separated by SDS-PAGE, transferred to PVDF membranes and subjected to Western blot analysis. Antibodies for Western blot analysis were obtained by the following commercial sources: anti-USP14 (Bethyl Laboratories), anti-ubiquitin (Santa Cruz Biotechnology), anti-β-actin (Sigma). Peroxidase-linked anti-mouse Immunoglobulin G and peroxidase-linked anti-rabbit Immunoglobulin G were from Amersham.
(§5) USP14 is a proteasome-associated deubiquitinating enzyme whose role is to remove ubiquitin molecules from targeted proteins prior to degradation by the 20S catalytic activities of the proteasome. […] Thus, the consequences of USP14 inhibition on ubiquitin-dependent protein degradation in endometrial cancer cells was investigated. To this end, ECC1 and HEC155 cells were exposed to 150 nM or 250 nM VLX1570, respectively, over a period of 24 hours and the effect on cellular protein ubiquitination was evaluated by Western blot analysis after 0, 2, 8 or 12 hours from drug exposure. […] Quantifications of the changes in high molecular weight ubiquitin species in each respective cell line, versus control, are given in FIGS. 5B and 5D (top panels).
(§6) Next, endometrial cancer cell lines were exposed to increasing concentrations of VLX1570 ([…] for ECC1 and HEC155, respectively) over a period of 24 hours. The effect on accumulation of poly-ubiquitinated proteins was evaluated by Western blot. […] Quantifications of the changes in high-molecular weight ubiquitin species in dose-dependent fashion are given in FIGS. 5B and 5D (bottom panels).

[5] = tested on: ubiquitin-dependent protein degradation in HEC155 cells; assay: Western blot for accumulation of poly-ubiquitinated proteins, HEC155; type: cell-based
Description: as §4, §5, §6

[6] = tested on: HEC155 endometrial cancer cells; assay: Cell cycle distribution by propidium iodide flow cytometry, HEC155; type: cell-based; conditions: HEC155, 300 nM, 24 hours
Description: (§7) Cell cycle status following treatment with drug or vehicle alone was determined via flow cytometry analysis. Specifically, cells were harvested at indicated time points and fixed in 70% ethanol on ice for 2 hours. Following washing with PBS, cells were stained with 0.1% (m/v) propidium iodide in PBS-T. Apoptosis was measured using antibodies against active Caspase-3 (BD Pharmingen) or Annexin V (BD Pharmingen) which were combined with propidium iodide staining (Sigma-Aldrich). For apoptosis assays, samples were fixed and stained according to manufacturer's instructions. Fluorescence was measured with a FACSCantoII flow cytometer (Becton Dickinson) and analyzed with FlowJo software.
(§8) The USP14 modulates levels of cell cycle regulatory proteins whose dysregulation is expected to affect the cell cycle. This is further supported by the findings showing a strong correlation between USP14 and Ki67 staining in clinical specimens of endometrial cancer. Thus, the hypothesis that inhibition of USP14 would result in endometrial cancer cells failing to progress through the cell cycle was tested. To this end, HEC155 and ECC1 endometrial cancer cells were incubated with the USP14 inhibitor VLX1570 over a period of 24 hours and the cell cycle status was analyzed by flow cytometry after staining with propidium iodide. […]

[7] = tested on: ECC1 endometrial cancer cells; assay: Cell cycle distribution by propidium iodide flow cytometry, ECC1; type: cell-based; conditions: ECC1, 300 nM, 24 hours
Description: as §7, §8

[8] = tested on: ECC1 endometrial cancer cells; assay: Apoptosis by flow cytometry (active caspase-3, Annexin V, propidium iodide), ECC1; type: cell-based
Description: as §7
(§9) Next, the fate of ECC1 and HEC155 endometrial cancer cells following VLX1570-induced cell cycle arrest was evaluated. Specifically, it was tested whether the reduction in cell viability following drug treatment is consistent with onset of apoptosis. The expression levels of active caspase-3 in control versus VLX1570 treated cells was measured. Importantly, caspase-3 is an active cell-death protease involved in the execution phase of apoptosis, where cells undergo morphological changes such as DNA fragmentation, chromatin condensation and apoptotic body formation.
(§10) Similarly, the fraction of cells taking up propidium iodide, a feature of both advanced apoptosis and necrosis, is elevated in […]. These findings support the hypothesis that pharmacological inhibition of USP14 triggers apoptosis in endometrial cancer cells.

[9] = tested on: HEC155 endometrial cancer cells; assay: Apoptosis by flow cytometry (active caspase-3, Annexin V, propidium iodide), HEC155; type: cell-based
Description: as §7, §9, §10

[10] = tested on: COV362 ovarian cancer cells; assay: Cell viability of sensitive and carboplatin-resistant COV362; type: cell-based
Description: (§11) FIG. 11. COV362 and ES-2 carboplatin-resistant clones. Residual cell viability of sensitive and resistant COV362 and ES-2 ovarian cancer cells exposed to the indicated concentrations of carboplatin over a period of 48 hours.
(§12) FIG. 12. Carboplatin resistant COV362 and ES-2 ovarian cancer cells are sensitive to USP14 inhibition. Residual cell viability of resistant COV362 and ES-2 ovarian cancer cells exposed to the indicated concentrations of the FDA approved USP14 inhibitor VLX1570 over a period of 48 hours. The structure of VLX1570 is:
(§13) Carboplatin-resistant ovarian cancer cell lines are sensitive to pharmacological inhibition of USP14. Two ovarian cancer cell lines, COV-362 and ES-2 were exposed to carboplatin according to the method described in FIG. 9 and the resulting USP14 overexpressing clones were subjected to cell viability assay to assess the extent of chemoresistance. […] Next, the sensitivity of COV362 and ES-2 resistant clones to the FDA approved USP14 inhibitor VLX1570 was determined.

[11] = tested on: ES-2 ovarian cancer cells; assay: Cell viability of sensitive and carboplatin-resistant ES-2; type: cell-based
Description: as §11, §12, §13

[12] = tested on: ECC1 endometrial cancer cell line; assay: Multi-step carboplatin chemoresistance model, ECC1; type: cell-based
From the text: USP14 is co-expressed with ETM makers during the multi-stage process leading to chemoresistance. Acquisition of aggressive phenotype and chemoresistance is a multi-stage process whereby the subpopulation of cells surviving drug treatment give rise to cells characterized by increased in migratory behavior, proliferation rate and chemoresistance via a transition accompanied by increase in stem cell and epithelial-mesenchymal transition (EMT) markers. This model was recapitulated in ECC1 endometrial cancer cell line and the temporal USP14 expression was evaluated during this multi-step process. Specifically. ECC1 cells were exposed to two rounds of carboplatin treatment (20 μM) over the period of two weeks. The first round resulted with approx. 60% of cell death. The second round resulted with approx. 90% of cell death. Consistent with what previously shown, the surviving population was characterized by giant, polyploidy, chemoresistant cells whose numbers remained similar over the course of the following two weeks. […] Next, the expression levels of USP14 and the EMT marker vimentin were evaluated in the initial population (chemosensitive tumor) and in two of the chemoresistant clones. USP14 overexpression is temporally associated to the expression of the EMT marker vimentin.

[13] = tested on: carboplatin sensitive cancer cells; assay: Multi-step carboplatin chemoresistance model in vitro (Example 2); type: cell-based; conditions: 10 μM, two rounds over two weeks
Description: Multi-step process leading to recurrence can be recapitulated in vitro and results with up-regulation of USP14. Carboplatin chemoresistance was recapitulated in vitro according to the model schematized in FIG. 9. Specifically, carboplatin sensitive cancer cells were exposed to two rounds of carboplatin treatment (10 μM) over the period of two weeks. The first round resulted with approx. 60% of cell death. The second round resulted with approx. 90% of cell death. This is consistent with the dramatic reduction in tumor burden in chemosensitive patients treated with neoadjuvant chemotherapy. […] As shown in FIG. 9 the chemotherapy surviving population was characterized by stem like giant, polyploidy, chemoresistant cells whose numbers remained similar over the course of the following two weeks. This population was the precursor of clones of cells that survived in presence of carboplatin. Strikingly, when the expression levels of USP14 and the […] marker vimentin were evaluated in the initial population (chemosensitive tumor) and in two of the chemoresistant clones isolated. USP14 overexpression is temporally associated to over-expression of the […] marker, vimentin.

[14] = read-out: IC50, inhibition of cell viability
[15] = read-out: IC50 for carboplatin, cell viability
[16] = ECC1, 20 μM, two rounds over two weeks

SMILES: O=C1/C(=C/c2ccc([N+](=O)[O-])cc2)CNC/C1=C\c1ccc([N+](=O)[O-])cc1 [RA-9, (3E, 5E)-3,5-bis(nitrobenzylidene)piperidin-4-one]
- effect on cell viability of chemoresistant ovarian cancer cells [1]: killed chemoresistant ovarian cancer cells
- Caspase-3 activation (ovarian cancer cells): activation of Caspase-3

SMILES: C=CC(=O)N1CC/C(=C\c2ccc(F)c([N+](=O)[O-])c2)C(=O)/C(=C/c2ccc(F)c([N+](=O)[O-])c2)C1 [VLX1570]
- anti-proliferative concentration, times lower than that required for carboplatin ([2]; HEC155): 500 times
- pIC50 [2, 14]: 6.74
- anti-proliferative concentration, times lower than that required for carboplatin ([3]; ECC1): 800 times
- pIC50 [3, 14]: 6.93
- inhibition of ubiquitin-dependent protein degradation (dose course) ([4]; ECC1, 0-150 μM, 24 hours): dose-dependent inhibition of ubiquitin-dependent protein degradation
- start of accumulation of poly-ubiquitinated proteins after drug exposure ([4]; ECC1, 150 nM): two
- accumulation of poly-ubiquitinated proteins (time course) ([4]; ECC1, 150 nM, 0, 2, 8 or 12 hours): dose-dependent accumulation of poly-ubiquitinated proteins
- inhibition of ubiquitin-dependent protein degradation (dose course) ([5]; HEC155, 0-250 μM, 24 hours): dose-dependent inhibition of ubiquitin-dependent protein degradation
- start of accumulation of poly-ubiquitinated proteins after drug exposure ([5]; HEC155, 250 nM): two
- accumulation of poly-ubiquitinated proteins (time course) ([5]; HEC155, 250 nM, 0, 2, 8 or 12 hours): dose-dependent accumulation of poly-ubiquitinated proteins
- percentage of cells in the G2/M phase versus controls [6]: increase in the percentage of cells in the G2/M phase
- percentage of cells in the G2/M phase, treated versus control [7]: nearly double
- Annexin V staining cells ([8]; ECC1, 300 nM, 24 hours): increase of Annexin V staining cells
- fraction of cells taking up propidium iodide ([8]; ECC1, 300 nM, 24 hours): elevated
- levels of active caspase-3 ([8]; ECC1, 24 hours, versus mock): increased levels of active caspase-3
- Annexin V staining cells ([9]; HEC155, 300 nM, 24 hours): increase of Annexin V staining cells
- fraction of cells taking up propidium iodide ([9]; HEC155, 300 nM, 24 hours): elevated
- levels of active caspase-3 ([9]; HEC155, 24 hours, versus mock): increased levels of active caspase-3
- killing concentration, fold lower than the one required with carboplatin ([10]; carboplatin-resistant COV362): approx. 10 fold
- pIC50 ([10]; carboplatin-resistant COV362 clones, 48 hours, read-out: IC50, inhibition of cell viability): 5.06
- killing concentration, fold lower than the one required with carboplatin ([11]; carboplatin-resistant ES-2): approx. 10 fold
- pIC50 ([11]; carboplatin-resistant ES-2 clones, 48 hours, read-out: IC50, inhibition of cell viability): 5.15

SMILES: N.N.O=C([O-])C1(C(=O)[O-])CCC1.[Pt+2] [carboplatin]
- pIC50 [2, 15]: 4.11
- pIC50 [3, 15]: 4.01
- cell death, first round of carboplatin treatment [12, 16]: approx. 60%
- cell death, second round of carboplatin treatment [12, 16]: approx. 90%
- IC50 of chemoresistant clones as compared to the initial population ([12]; ECC1 chemoresistant clones): > 3 fold
- cell death, first round of carboplatin treatment [13]: approx. 60%
- cell death, second round of carboplatin treatment [13]: approx. 90%
- decrease in carboplatin sensitivity, resistant versus sensitive cells ([10]; COV-362, 48 hours exposure): > 4 fold
- decrease in carboplatin sensitivity, resistant versus sensitive cells ([11]; ES-2, 48 hours exposure): > 3 fold
